The record followed here is patent publication US7585519B2, “Esters of L-carnitine or alkanoyl L-carnitines useful as cationic lipids for the intracellular delivery of pharmacologically active compounds” (Sigma-Tau Industrie Farmaceutiche Riunite S.p.A., priority 1999, dated 2009).

In test [1] the test system is luciferase gene of pCMVluc plasmid in liver, lung and heart. The test can be described thus: In-vivo plasmid DNA transfection test (luciferase activity in tissues). Also noted: species or system Balb/c mice. The conditions noted are these: molar ratio 12:1.
The test system is the same in test [2]. Described as above. Also noted: species or system Balb/c mice. On the procedure: In the in-vivo experiments, both DOTAP and [2,3-(dioleoyl)propyl]trimethylammonium (DOTMA) were used as reference cationic lipids.
The molar ratios defined in the results refer to nmol concentrations of the respective cationic lipids per […] of DNA.
In the in-vivo transfection experiments, 25 μg of plasmid DNA per animal were used.
The plasmid pCMVluc used in these experiments contained the cDNA of the luciferase gene under the transcriptional control of the cytomegalovirus (CMV) promoter.
Protein luciferase activity in cells and tissues was determined using the Boehringer Mannheim kit (cat no. 1669 893).
The cells were washed 3 times in PBS and then removed from the plate with a scraper in lysis buffer (100 mM potassium phosphate pH 7.8. 1 mM dithiothreitol-DTT) and submitted to three consecutive cycles of freezing and thawing. After centrifuging in 1.5 mL Eppendorf tubes, the supernatant was used for the luminescence test not more than 5 hours after extraction of the proteins. Luminescence emission measurements were done using a luminometer at 562 nm. After a first freezing in liquid N2 followed by fine crushing to obtain a powder, the tissues were resuspended in lysis buffer and incubated for 10-15 min in ice.
The samples were then centrifuged in 2 ml Eppendorf tubes and the supernatant was tested for luciferase activity.
Both DOTAP and DOTMA were used as reference cationic lipids, the transfection capacity of which has been amply characterised and described by Abkenet et al., Proc. Natl. Acad. Sci. USA 1993, 90, 6518. In the in-vivo experiments, various different molar ratios of cationic lipids to plasmid DNA were analysed for the purposes of determining the activity of the cationic lipids and the respective most efficient concentrations for gene transfer. The transfection capability of the various liposomes was evaluated both in vitro and in vivo using the luciferase gene […] contained in the pCMVluc plasmid, the activity of which, in terms of relative luminescence units (RLU) (described previously) made for easy quantification.
In this experiment, the dependence of liver, lung and heart transfection efficiency on the ST 983 liposome:plasmid DNA molar ratio was evaluated. The following nmol ratios of liposome per μg DNA were tested: 12:1, 24:1, 36:1 and 48:1.
Groups of 6 Balb/c mice weighing approximately 20 g were treated intravenously with the above-mentioned amounts of liposome-DNA complex in 200 μl volumes of PBS and were sacrificed 24 hours after administration of the complex.

Another test concerns HeLa cells. The conditions noted are these: liposome 9 μM, 2.5 μg plasmid DNA, versus DOTAP, FIGS. 1 and 2.
The next test concerns M109 cells. The test can be described thus: In-vitro cytotoxicity test (sulforhodamine B, SRB). The class given is cell-based, murine. The conditions noted are these: for optical density reading at 540 nm (Mean): Table 2.3; for optical density reading at 540 nm (single reading): Table 2.3, listed as DMSO-CPT 83. The procedure:
The toxicity assays were done on HeLa and M109 cells in 96-well plates. On the day after plating, the cells were treated with the molecules being tested for the next 48 hours. The cells were then washed with PBS and left in normal growth conditions for 48 hours. After removal of the growth medium, the cells were incubated on ice with 16% TCA, washed 3 times in H2O, treated for 30 minutes with sulforhodamine B (SRB) in 1% acetic acid, washed 3 times in 1% acetic acid alone, incubated for 20 minutes in TRIS 10 mM pH 10.5 and, lastly, readings were taken at 540 nm. To evaluate the ability of the liposome to transport CPT 83 in vitro in M109 cells the sulforhodamine B test described above was used. In addition, the cytotoxicity of CPT 83 dissolved in dimethyl-sulphoxide (DMSO) was also evaluated as compared to that of the same molecule complexed with the ST 983 liposome. The liposome-CPT 83 complex was used in the cytotoxicity assays at the concentrations indicated in Tables 2.1, 2.2 and […] here below in both the SUV and MLV configurations. The liposome:CPT 83 molar ratio used was 40:1.

Test [3] deals with murine pulmonary carcinoma M109.
Description: To induce the tumour in vivo, unanaesthetised Balb/c mice received injections of 3×10^5 cells of murine pulmonary carcinoma M109 in 0.1 ml RPMI-1640 (Sigma) in the quadriceps femoris of the right rear paw.
Taxol (paclitaxel INDENA) used as a control was dissolved in the cremophor vehicle EL (BASF) at a concentration of 20 mg/mL and stored at +4° C. for the next 24 hours, protected against the light. At the time of use, it was diluted with phosphate-buffered saline solution (PBS, SIGMA) and injected intravenously in the same volume and concentration conditions as described for taxol transported by the ST 983 liposome.
The cremophor was prepared by diluting 1:1 with ethyl alcohol.
Administrations were given for seven consecutive days starting from day 10 after inoculation of the tumour. The animals were kept under observation up to day 17 post-inoculation and sacrificed by cervical dislocation, and their lungs were removed for determination of the number of metastases. Staining of the lungs to detect metastases was done by incubating the lungs for 10 days in 5 ml of Bouin's solution, consisting of 71% saturated picric acid solution, 4.8% glacial acetic acid (Merck), and 24% 10% formaldehyde (Fluka). At the end of the incubation period in Bouin's solution, the numbers of metastases were counted.
Statistical analysis of the data for the number of lung metastases was done using the Mann-Whitney non-parametric tests for unpaired data.
The mark [4] stands for this setting: liposome/DNA preincubation time 30 min.
[5] abbreviates: liposome/DNA preincubation time 3 h.
The mark [6] stands for this setting: ST 983:DNA molar ratio 24:1, i.v., 24 hours.
Setting [7] is: ST 983:DNA molar ratio 36:1, i.v., 24 hours.
The mark [8] stands for this setting: ST 983:DNA molar ratio 48:1, i.v., 24 hours.
[9] abbreviates: liposome:DNA molar ratio 12:1, i.v., 24 hours.

Where “and” joins values, the source holds several entries; their conditions need not be identical. Identical values can stand only once.

Description for HeLa cells: Liposome and plasmid DNA were suitably diluted separately in PBS. The DNA was then added to the liposome and the liposome-DNA complex was left for approximately 30 min at 4° C. to facilitate the formation of a stable liposome-DNA interaction.
In the in-vitro experiments, 1,2-dioleoyloxy-3-trimethyl-ammonium propane (DOTAP) was used as a reference cationic lipid; 2.5 μg of plasmid DNA were used per 2×10^5 HeLa cells, and the liposome concentration was 9 μM.
5 μg of the DNA extracted from the cells were preabsorbed on nylon filters (Boehringer) using the Biorad dot-blot appliance. The filters were then prehybridised for 4 hours at 65° C. with a solution containing 0.5 M of sodium pyrophosphate (NaPi), 1 mM EDTA, 7% SDS. […] The autoradiographic analysis was carried out with the aid of a phosphor imager which uses phosphor screens activated by beta-radiation which are read and quantified by means of a photomultiplier system in conjunction with an image analysis program. […]
As an alternative, the transfection efficiency of a number of cationic liposomes was evaluated by means of densitometric analysis (phosphor imager) of samples of DNA extracted from transfected cells preabsorbed on nitrocellulose filters (dot-blot) and hybridised with ^32P-labelled plasmid DNA markers, as described previously.

Turning to `CCCCCCCCCCCCCCCC(=O)O[C@H](CC(=O)OCCCCCCCCCCC)C[N+](C)(C)C.[Cl-]` [ST 983, palmitoyl L-carnitine chloride undecyl ester], the “Mean RLU/mg protein ± s.d. heart” value in test [1] (setting [4]) is on record as 8118 +/− 263 RLU/mg protein; in test [1] (setting [5]), 37100 +/− 1853 RLU/mg protein; in test [2] (setting [6]), 7091 +/− 249 RLU/mg protein; in test [2] (setting [7]), 8351 +/− 477 RLU/mg protein; in test [2] (setting [8]), 5251 +/− 489 RLU/mg protein; in test [2] (setting [9]) it was 28875 +/− 2593 RLU/mg protein. Besides, the “Mean RLU/mg protein ± s.d. liver” value in test [1] (setting [4]) is on record as 3526 +/− 260 RLU/mg protein; in test [2] (setting [6]), 1310 +/− 385 RLU/mg protein; in test [2] (setting [7]), 1035 +/− 347 RLU/mg protein; in test [2] (setting [8]) it was 1571 +/− 156 RLU/mg protein; in test [2] (liposome/DNA preincubation time 3 h, molar ratio 12:1) it was 2497 +/− 682 RLU/mg protein; in test [2] (setting [9]) it was 2589 +/− 140 RLU/mg protein. Moreover, the “Mean RLU/mg protein ± s.d. Lung” value in test [1] (setting [5]) is 4225656 +/− 211731 RLU/mg protein; in test [2] (setting [6]), 2257856 +/− 280480 RLU/mg protein; in test [2] (setting [7]), 301107 +/− 21503 RLU/mg protein; in test [2] (setting [8]) it was 112747 +/− 5655 RLU/mg protein; in test [2] (liposome/DNA preincubation time 30 min., molar ratio 12:1), 874882 +/− 65917 RLU/mg protein; in test [2] (setting [9]), 8818442 +/− 449529 RLU/mg protein. The “share of the total luciferase extracted from lung, heart and liver located in the lungs” value in test [2] (all molar ratios analysed) is “approximately 99%”. Also, the “in-vivo plasmid DNA transport efficiency compared with DOTMA” value in test [2] (lung, molar ratio 12:1) is recorded as “efficiency ratings higher than and/or comparable to those of DOTMA”. For the same molecule, the “increase in luciferase activity in the lung and heart, 3 hours versus 30 minutes preincubation” value in test [2] (molar ratio 12:1) is listed as “approximately 5 fold”.
With “ester of propionyl L-carnitine bromide with 2-hydroxy acetyl 1,3 dipalmitoyl glycerol [ST 772]”, the “amounts of plasmid DNA in transfected cells (blot analysis)” value in the test with HeLa cells is recorded as “same order of magnitude as obtained with DOTAP”.
With `CC[C@@]1(O)C(=O)OCc2c1cc1n(c2=O)Cc2c-1nc1ccccc1c2C#N` [CPT 83, 7-carbonitrile camptothecin], the “optical density reading at 540 nm (Mean)” value is listed as 0.8399 with M109 cells (0.0013 μM); 0.82 in the test on M109 cells (0.013 μM); 0.4446 in the test with M109 cells (0.13 μM); 0.309 in the test on M109 cells (1.3 μM); 0.2921 in the test with M109 cells (13 μM). Moreover, the “optical density reading at 540 nm (single reading)” value in the test with M109 cells (0.0013 μM) was 0.863 and 0.795 and 0.831 and 0.878 and 0.809 and 0.816 and 0.886 and 0.841; in the test on M109 cells (0.013 μM), 0.851 and 0.79 and 0.806 and 0.81 and 0.8 and 0.804 and 0.863 and 0.836; in the test on M109 cells (0.13 μM), 0.474 and 0.467 and 0.429 and 0.421 and 0.406 and 0.407 and 0.57 and 0.383; with M109 cells (1.3 μM), 0.318 and 0.317 and 0.328 and 0.305 and 0.33 and 0.302 and 0.285 and 0.287; in the test with M109 cells (13 μM), 0.285 and 0.288 and 0.312 and 0.318 and 0.281 and 0.267 and 0.3 and 0.286.
Regarding `CC(=O)O[C@H]1C(=O)[C@@]2(C)[C@H]([C@H](OC(=O)c3ccccc3)[C@]3(O)C[C@H](OC(=O)[C@H](O)[C@@H](NC(=O)c4ccccc4)c4ccccc4)C(C)=C1C3(C)C)[C@]1(OC(C)=O)CO[C@@H]1C[C@@H]2O` [Taxol, paclitaxel], the “effect on pulmonary metastases compared to untreated control mice” value in test [3] (M109, Balb/c mice, i.v.) is “no reducing effect on the number of pulmonary metastases”. For the same molecule, the metastases size entry in test [3] (lung metastases at 17th day after M109 inoculation, BALB/c mice) is “S (S = small (<1 mm diameter))”. For the same molecule, the “metastases Mean ± s.d” value in test [3] (lung metastases at 17th day after M109 inoculation, BALB/c mice, i.v. for seven consecutive days from day 10) is listed as 22 ± 9.
